According to paper PMC12669040, “Tumour-specific STING agonist synthesis via a two-component prodrug system” (Nature Chemistry, 2025):
Where “and” joins values, the source holds several entries; their conditions need not be identical. Equal entries are not always repeated.

Assay: Haematotoxicity, CT26mβGUS model
Type: in vivo, BALB/c mice
Parameters: WBC / RBC: unit not given here
Excerpt: MCV: Mean Corpuscular Volume; MCH: Mean Corpuscular Haemoglobin; WBC: White Blood Cell Count; PLT: Platelet Count; RDW-CV: Red Cell Distribution Width - Coefficient of Variation; MPV: Mean Platelet Volume. RBC: red blood cell count; HGB: haemoglobin; HCT: haematocrit; MCV: Mean Corpuscular Volume; MCH: Mean Corpuscular Haemoglobin; WBC: White Blood Cell Count; PLT: Platelet Count; RDW-CV: Red Cell Distribution Width - Coefficient of Variation; MPV: Mean Platelet Volume. […] Source data

[1] = Day0, individual mice, in % (unit assumed)
[2] = Day0, individual mice, in pg (unit assumed)
[3] = Day5, individual mice, in % (unit assumed)
[4] = Day5, individual mice, in fL (unit assumed)
[5] = Day5, individual mice, in g/dL (unit assumed)

| Structure (SMILES) | MPV (Day0, individual mice) | PLT (Day0, individual mice) | RBC (Day0, individual mice) | WBC (Day0, individual mice) | HCT [1] | MCH [2] | MCH (Day5, individual mice) | MPV (Day5, individual mice) | PLT (Day5, individual mice) | RBC (Day5, individual mice) | WBC (Day5, individual mice) | HCT [3] | MCV [4] | HGB [5] | further results |
| --- | --- | --- | --- | --- | --- | --- | --- | --- | --- | --- | --- | --- | --- | --- | --- |
| COc1cc2cc(C(=O)CCC(=O)O)sc2cc1OC [MSA2] | 6.5 and 7.1 and 7.9 | 1210 and 892 and 696 and 576 | 10.94 and 10.54 and 10.66 and 9.7 | 7.1 and 7.7 and 8.8 and 8.2 | 53.4 and 52.7 and 52.8 and 48.8 | 15.1 and 14.8 and 14.6 and 14.9 | 14.9 pg (3×) and 15 pg | 6.6 and 7.6 (2×) and 6.8 | 1244 and 920 and 808 and 855 | 10 and 8.31 and 9.87 and 7.92 | 8.6 and 8 and 9.3 and 7.4 | 51.7 and 43.1 and 50.2 and 40.6 | 51.7 and 51.9 and 50.9 and 51.3 | 14.9 and 12.4 and 14.8 and 11.8 | HGB (Day0, individual mice): 16.5 and 15.6 (2×) and 14.5; RDW-CV (Day0, individual mice): 14.4 and 15.1 (2×) and 15.3; MCV (Day0, individual mice, in fL (unit assumed)): 48.8 and 50 and 49.5 and 50.3; RDW-CV (Day5, individual mice): 16 and 14.5 and 14.4 (2×); red blood cells, haemoglobin and haematocrit (MSA2 5 mg kg^−1 IT): modest decreases |
| COc1cc2sc(C(=O)CCC(=O)O)cc2cc1SCCSc1cc2cc(C(=O)CCC(=O)O)sc2cc1OC [SC2S] | 8 and 7.6 and 6.7 and 7.2 | 670 and 896 and 1143 and 870 | 9.65 and 10.31 and 10.59 and 10.89 | 11 and 10 and 8.7 and 8.4 | 53.1 and 53.2 and 53 and 54.5 | 15.1 and 14.8 and 14.9 and 15 | 15.1 and 14.7 and 15.2 (2×) | 7.6 (2×) and 6.6 | 155 and 541 and 770 and 1292 | 8.22 and 9.33 and 9.82 and 10.19 | 9.2 and 10.4 and 6.6 (2×) | 42 and 49.9 and 50.4 and 52 | 51.1 and 50.3 and 51.3 and 51 | 12.4 and 13.7 and 14.9 and 15.5 | MCV (Day0, individual mice): 55 and 51.6 and 50 (2×); RDW-CV [1]: 14.7 and 15.1 and 14.8 and 15; HGB (Day0, individual mice, in g/dL (unit assumed)): 14.6 and 15.3 and 15.8 and 16.3; RDW-CV [3]: 14 and 14.3 and 16.7 and 15.7 |
